Reference: patent US8129592B2, “Plant isoflavonoid hydroxylases and methods of use thereof” (The Samuel Roberts Noble Foundation, Inc., priority 2003, dated 2012)
Marks after values point to notes of the source that are not given here. One block for each molecule: values may come before it.

Assays:
I2′H (MtCYP81E7) = molecular target: T1, I2′H (MtCYP81E7) (Medicago truncatula, UniProt Q6WNR0); test: Hydroxylase assay with yeast microsomes expressing recombinant MtCYP81E7 (I2′H); assay type: biochemical; conditions: for Substrate specificity of I2′H (MtCYP81E7), relative activity: 100% = biochanin A, a = sum of putative 2′ and/or 3′-hydroxylated products, ND = activities not detectable
T1 construct: The open reading frame of MtCYP81E7 was amplified with forward primer; made in house; host or cells: Saccharomyces cerevisiae WAT11, vector YeDP60; microsomal fraction
T1 sequence (Q6WNR0 1-498): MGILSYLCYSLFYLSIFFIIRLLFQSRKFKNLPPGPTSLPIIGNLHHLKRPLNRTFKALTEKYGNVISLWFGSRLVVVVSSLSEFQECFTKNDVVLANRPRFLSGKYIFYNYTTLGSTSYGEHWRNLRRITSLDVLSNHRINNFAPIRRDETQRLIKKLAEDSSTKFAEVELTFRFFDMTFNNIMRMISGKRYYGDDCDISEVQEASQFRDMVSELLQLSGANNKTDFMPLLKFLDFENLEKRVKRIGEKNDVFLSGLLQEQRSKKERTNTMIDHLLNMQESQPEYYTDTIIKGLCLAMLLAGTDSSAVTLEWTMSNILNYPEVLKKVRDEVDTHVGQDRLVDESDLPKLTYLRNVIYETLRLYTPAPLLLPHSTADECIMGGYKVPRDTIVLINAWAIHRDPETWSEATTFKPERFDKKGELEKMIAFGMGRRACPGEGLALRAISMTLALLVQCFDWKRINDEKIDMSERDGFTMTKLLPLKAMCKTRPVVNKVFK
Procedure: (§1) PCR products were digested with BamHI and KpnI and ligated into the yeast expression vector YeDP60 following BamHI/KpnI digestion. MtCYP81E8 was directly excised from the original clone in pBSK(+) by BamHI and KpnI and inserted into YeDP60. All constructs were sequenced to ensure that there were no PCR-introduced errors. […] After induction with 20% galactose for ˜18 h, yeast cells was harvested, weighed, and immediately processed for microsomal fractionation.
(§2) After incubation at ˜80 rpm for 30 to 40 min, spheroplasts were centrifuged down for 5 min, washed twice with Zymolyase buffer B, and then twice with phosphate buffer A (0.1 M potassium phosphate pH 8.0, 1 M sorbitol, 14 mM 2-mercaptoethanol). The spheroplasts were re-suspended in a minimum vol of phosphate buffer B (0.1 M potassium phosphate pH 8.0, 0.4 M sucrose, 14 mM β-mercaptoethanol, 1 mM PMSF and 1× […] (Roche Diagnostics GmbH, Mannheim, German), and 1 vol of glass beads (diameter at 0.45/0.50 mm) was added. Samples were vigorously vortexed at 4° C., with the quality of cell disruption checked under the microscope. The supernatant was then removed and the beads washed four times with phosphate buffer B. Supernatants were pooled and centrifuged at 12,000 g for 10 min; the resulting supernatant was then ultracentrifuged at 140,000 g for 90 min. The supernatant was discarded and the pellet washed briefly with phosphate buffer C (0.1 M potassium phosphate, pH 8.0, 0.4 M sucrose, 0.5 mM glutathione), and re-suspended in the same buffer plus 5% glycerol at about 12 mg total protein/ml. Protein was quantified using a Bio-Rad protein assay kit (Bio-Rad, Hercules, Calif.).
(§3) Hydroxylase assays were performed in phosphate buffer C in a total volume of 150 μl containing 2 mM NADPH, 40 μM isoflavone substrate and 40˜70 pmol P450 protein. […] The extracts were combined, evaporated under N2, re-suspended in 60 μl of methanol, and analyzed by HPLC or LC-MS. All assays to determine enzyme specificity were carried out in duplicate. For kinetic studies, the isoflavone concentration was varied at a fixed concentration of NADPH (2 mM), and kinetic constants calculated from initial rate data using Lineweaver-Burke double reciprocal plots. All kinetic analyses were carried out in triplicate.
(§4) Reaction products from enzyme assays (30 μl) were analyzed by HPLC.
(§5) Product identification was firstly based on comparisons of chromatographic behavior and UV spectra with authentic standards. Identifications were then confirmed by HPLC-MS, using a HP 1100 liquid chromatograph coupled to a Bruker Esquire Ion-Trap mass spectrometer equipped with an electrospray source. HPLC separation was achieved using a J. T. Baker Bakerbond reverse-phase column (C18, 5 μm, 4.6 mm×250 mm, J. T. Baker, Philipsberg, N.J.). Samples were eluted with the gradient described above but with 0.1% aqueous acetic acid replacing the 1% phosphoric acid. Ion charge control was set at 30,000 with a max acquire time of 100 ms. Mass spectra were recorded over a range of 50-2200 m/z.

I3′H (MtCYP81E9) = molecular target: T2, I3′H (MtCYP81E9) (Medicago truncatula, UniProt Q6WNQ9); test: Hydroxylase assay with yeast microsomes expressing recombinant MtCYP81E9 (I3′H); assay type: biochemical; conditions: for Substrate specificity of I3′H (MtCYP81E9), relative activity: 100% = biochanin A, a = sum of putative 2′ and/or 3′-hydroxylated products, b = sum of all the products, ND = activities not detectable
T2 construct: made in house; host or cells: Saccharomyces cerevisiae WAT11, vector YeDP60; microsomal fraction
T2 sequence (Q6WNQ9 with tags, fused parts or gaps limits assumed): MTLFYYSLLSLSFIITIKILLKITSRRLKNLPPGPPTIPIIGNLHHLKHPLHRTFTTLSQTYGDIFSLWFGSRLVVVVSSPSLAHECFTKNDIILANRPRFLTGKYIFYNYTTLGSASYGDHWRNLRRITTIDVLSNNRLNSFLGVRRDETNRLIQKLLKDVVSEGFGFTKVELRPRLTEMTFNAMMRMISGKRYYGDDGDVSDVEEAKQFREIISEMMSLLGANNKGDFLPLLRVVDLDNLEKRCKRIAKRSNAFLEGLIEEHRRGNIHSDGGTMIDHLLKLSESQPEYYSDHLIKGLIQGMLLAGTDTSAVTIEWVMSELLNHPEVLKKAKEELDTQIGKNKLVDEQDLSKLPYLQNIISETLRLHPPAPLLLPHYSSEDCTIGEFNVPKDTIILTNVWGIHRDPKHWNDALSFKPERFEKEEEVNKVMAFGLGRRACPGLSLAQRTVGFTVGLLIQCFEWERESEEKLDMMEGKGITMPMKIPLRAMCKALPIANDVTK
Procedure: as §1, §2, §3, §4, §5

MtCYP81E8 = molecular target: T3, MtCYP81E8 (Medicago truncatula, UniProt Q6WNQ8); test: Hydroxylase assay with yeast microsomes expressing recombinant MtCYP81E8; assay type: biochemical; conditions: standard assay conditions, or at different pH values and NADPH concentrations
T3 construct: The full length CYP81E8 cDNA was directly excised from its original clone; made in house; host or cells: Saccharomyces cerevisiae WAT11, vector YeDP60; microsomal fraction
T3 sequence (Q6WNQ8 1-499): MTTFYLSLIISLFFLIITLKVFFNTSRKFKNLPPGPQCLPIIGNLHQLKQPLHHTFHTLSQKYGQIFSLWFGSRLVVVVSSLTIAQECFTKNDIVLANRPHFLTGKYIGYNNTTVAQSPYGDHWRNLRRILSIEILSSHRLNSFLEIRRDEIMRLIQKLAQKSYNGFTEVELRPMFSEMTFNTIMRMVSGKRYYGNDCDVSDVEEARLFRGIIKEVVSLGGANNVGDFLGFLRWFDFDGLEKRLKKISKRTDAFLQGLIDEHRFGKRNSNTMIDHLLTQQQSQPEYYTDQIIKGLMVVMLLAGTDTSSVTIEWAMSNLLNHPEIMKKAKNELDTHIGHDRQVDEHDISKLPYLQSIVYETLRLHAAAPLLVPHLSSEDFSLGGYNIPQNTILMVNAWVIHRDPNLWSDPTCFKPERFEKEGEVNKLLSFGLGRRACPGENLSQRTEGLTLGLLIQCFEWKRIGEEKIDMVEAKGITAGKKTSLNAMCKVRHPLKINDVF
Procedure: as §1, §2, §3, §4

[1] = substrate: COc1ccc(-c2coc3cc(O)cc(O)c3c2=O)cc1; test: Hydroxylase assay with yeast microsomes expressing recombinant MtCYP81E7 (I2′H); assay type: biochemical, Medicago truncatula; conditions: other: 2 mM NADPH and pH 8.0, 25.0 °C
Procedure: (§6) After incubation at ˜80 rpm for 30 to 40 min, spheroplasts were centrifuged down for 5 min, washed twice with Zymolyase buffer B, and then twice with phosphate buffer A (0.1 M potassium phosphate pH 8.0, 1 M sorbitol, 14 mM 2-mercaptoethanol). The spheroplasts were re-suspended in a minimum vol of phosphate buffer B (0.1 M potassium phosphate pH 8.0, 0.4 M sucrose, 14 mM β-mercaptoethanol, 1 mM PMSF and 1× protein inhibitor cocktail (Roche Diagnostics GmbH, Mannheim, German), and 1 vol of glass beads (diameter at 0.45/0.50 mm) was added. Samples were vigorously vortexed at 4° C., with the quality of cell disruption checked under the microscope. The supernatant was then removed and the beads washed four times with phosphate buffer B. Supernatants were pooled and centrifuged at 12,000 g for 10 min; the resulting supernatant was then ultracentrifuged at 140,000 g for 90 min. The supernatant was discarded and the pellet washed briefly with phosphate buffer C (0.1 M potassium phosphate, pH 8.0, 0.4 M sucrose, 0.5 mM glutathione), and re-suspended in the same buffer plus 5% glycerol at about 12 mg total protein/ml. Protein was quantified using a Bio-Rad protein assay kit (Bio-Rad, Hercules, Calif.).
(§7) Hydroxylase assays were performed in phosphate buffer C in a total volume of 150 μl containing 2 mM NADPH, 40 μM isoflavone substrate and 40˜70 pmol P450 protein. Reactions were incubated at 25° C. for 1.5 h (over which period the reactions were linear) with gentle shaking and stopped by extracting twice with 500 μl of ethyl acetate. The extracts were combined, evaporated under N2, re-suspended in 60 μl of methanol, and analyzed by HPLC or LC-MS. All assays to determine enzyme specificity were carried out in duplicate. For kinetic studies, the isoflavone concentration was varied at a fixed concentration of NADPH (2 mM), and kinetic constants calculated from initial rate data using Lineweaver-Burke double reciprocal plots. All kinetic analyses were carried out in triplicate.
(§8) Product identification was firstly based on comparisons of chromatographic behavior and UV spectra with authentic standards. Identifications were then confirmed by HPLC-MS, using a HP 1100 liquid chromatograph coupled to a Bruker Esquire Ion-Trap mass spectrometer equipped with an electrospray source. HPLC separation was achieved using a J. T. Baker Bakerbond reverse-phase column (C18, 5 μm, 4.6 mm×250 mm, J. T. Baker, Philipsberg, N.J.). […] Mass spectra were recorded over a range of 50-2200 m/z.

[2] = substrate: COc1ccc(-c2coc3cc(O)ccc3c2=O)cc1; test: as above; assay type: biochemical, Medicago truncatula; conditions: other: 2 mM NADPH and pH 8.0, 25.0 °C
Procedure: as §6, §7, §8

Activity of MtI2′H with substrate (in words) (I2′H (MtCYP81E7)): weak activity
Substrate specificity of I2′H (MtCYP81E7), relative activity (I2′H (MtCYP81E7); isoflavone 40 μM): 10.2%^a
Substrate specificity of I3′H (MtCYP81E9), relative activity (I3′H (MtCYP81E9); isoflavone 40 μM): 19.13%^a
Molecule: O=c1c(-c2ccc(O)cc2)coc2cc(O)cc(O)c12 [Genistein, 5,7,4′-trihydroxyisoflavone]

Molecule: NADPH
Km (I2′H (MtCYP81E7); read-out: apparent KM value of MtCYP81E7 for NADPH): ~0.17 µM

Molecule: COc1ccc2c(=O)c(-c3ccc(O)cc3)coc2c1 [Isoformononetin]
Activity of MtI2′H with substrate (in words) (I2′H (MtCYP81E7)): Neither enzyme hydroxylated
Activity of MtI3′H with substrate (in words) (I3′H (MtCYP81E9)): Neither enzyme hydroxylated

Activity corresponding to 100%, 2′-hydroxylation (I2′H (MtCYP81E7); isoflavone 40 μM, 2 mM NADPH): 53.8 pmol/pmol protein/h
Substrate specificity of I2′H (MtCYP81E7), relative activity (I2′H (MtCYP81E7); isoflavone 40 μM): 100%
Activity corresponding to 100%, 3′-hydroxylation (I3′H (MtCYP81E9); isoflavone 40 μM, 2 mM NADPH): 98.56 pmol pmol^−1 protein h^−1
Substrate specificity of I3′H (MtCYP81E9), relative activity (I3′H (MtCYP81E9); isoflavone 40 μM): 100%
Molecule: COc1ccc(-c2coc3cc(O)cc(O)c3c2=O)cc1 [Biochanin A]

Molecule: O=c1cc(-c2ccc(O)cc2)oc2cc(O)cc(O)c12 [apigenin]
Activity of recombinant MtCYP81E8 with substrate (in words) (MtCYP81E8): no activity

Molecule: COc1ccc(-c2coc3cc(O)ccc3c2=O)c(O)c1 [2′-Hydroxyformononetin]
Activity of MtI2′H with substrate (in words) (I2′H (MtCYP81E7)): negligible activity
Substrate specificity of I2′H (MtCYP81E7), relative activity (I2′H (MtCYP81E7); isoflavone 40 μM): 9.1%^a
Activity of MtI3′H with substrate (in words) (I3′H (MtCYP81E9)): more active
Substrate specificity of I3′H (MtCYP81E9), relative activity (I3′H (MtCYP81E9); isoflavone 40 μM): 39.34%^b

Molecule: COc1ccc(-c2coc3cc(O)ccc3c2=O)cc1O [3′-Hydroxyformononetin]
Activity of MtI2′H with substrate (in words) (I2′H (MtCYP81E7)): negligible activity
Substrate specificity of I2′H (MtCYP81E7), relative activity (I2′H (MtCYP81E7); isoflavone 40 μM): 4.7%

Molecule: O=c1c(-c2ccc(O)cc2)coc2cc(O)ccc12 [Daidzein, 7,4′-dihydroxyisoflavone]
Activity of MtI2′H with substrate (in words) (I2′H (MtCYP81E7)): weak activity
Substrate specificity of I2′H (MtCYP81E7), relative activity (I2′H (MtCYP81E7); isoflavone 40 μM): 18.6%^a
Activity of MtI3′H with substrate (in words) (I3′H (MtCYP81E9)): low activity
Substrate specificity of I3′H (MtCYP81E9), relative activity (I3′H (MtCYP81E9); isoflavone 40 μM): 1.73%^a

Molecule: O=C1C[C@@H](c2ccc(O)cc2)Oc2cc(O)cc(O)c21 [narigenin]
Activity of recombinant MtCYP81E8 with substrate (in words) (MtCYP81E8): no activity

Molecule: O=c1c(-c2ccc3c(c2)OCO3)coc2cc(O)ccc12 [Pseudobaptigenin]
Activity of MtI2′H with substrate (in words) (I2′H (MtCYP81E7)): active
Substrate specificity of I2′H (MtCYP81E7), relative activity (I2′H (MtCYP81E7); isoflavone 40 μM): 35%
Activity of MtI3′H with substrate (in words) (I3′H (MtCYP81E9)): low activity
Substrate specificity of I3′H (MtCYP81E9), relative activity (I3′H (MtCYP81E9); isoflavone 40 μM): 7.6%^a

Molecule: O=c1cc(-c2ccc(O)c(O)c2)oc2cc(O)cc(O)c12 [luteolin]
Activity of recombinant MtCYP81E8 with substrate (in words) (MtCYP81E8): no activity

Molecule: O=C1C[C@@H](c2ccc(O)cc2)Oc2cc(O)ccc21 [liquiritigenin]
Activity of recombinant MtCYP81E8 with substrate (in words) (MtCYP81E8): no activity

Molecule: COc1ccc(-c2coc3cc(O)ccc3c2=O)cc1 [Formononetin, 7-hydroxy, 4′-methoxyisoflavone]
Substrate specificity of I2′H (MtCYP81E7), relative activity (I2′H (MtCYP81E7); isoflavone 40 μM): 37.2%
Substrate specificity of I3′H (MtCYP81E9), relative activity (I3′H (MtCYP81E9); isoflavone 40 μM): 50%

Molecule: COc1cc(O)c2c(=O)c(-c3ccc(O)cc3)coc2c1 [Prunetin]
Activity of MtI2′H with substrate (in words) (I2′H (MtCYP81E7)): Neither enzyme hydroxylated
Activity of MtI3′H with substrate (in words) (I3′H (MtCYP81E9)): Neither enzyme hydroxylated

B1: I2′H (MtCYP81E7) (Medicago truncatula) (protein)
chain: T1 sequence (Q6WNR0 1-498)
notes: The open reading frame of MtCYP81E7 was amplified with forward primer; made in house; host or cells: Saccharomyces cerevisiae WAT11, vector YeDP60; microsomal fraction
Km [1]: 51 µM
kcat [1]: 0.033 s⁻¹
Km [2]: 67 µM
kcat [2]: 0.015 s⁻¹
